Experimental data from US7223771B2, “Tricyclic imidazopyridines” (Altana Pharma AG, priority 2001, dated 2007).

Test system: pentagastrin-stimulated acid secretion of the perfused rat stomach
Details: anesthetized CD rat, dose 3.0 μmol/kg i.d. (intraduodenal)
Source text: Testing of the Secretion-Inhibiting Action on the Perfused Rat Stomach
The abdomen of anesthetized rats (CD rat, female, 200–250 g; 1.5 g/kg i.m. urethane) was opened after tracheotomy by a median upper abdominal incision and a PVC catheter was fixed transorally in the esophagus and another via the pylorus such that the ends of the tubes just projected into the gastric lumen. The catheter leading from the pylorus led outward into the right abdominal wall through a side opening.
After thorough rinsing (about 50–100 ml), warm (37° C.) physiological NaCl solution was continuously passed through the stomach (0.5 ml/min, pH 6.8–6.9; Braun-Unita I). The pH (pH meter 632, glass electrode EA 147; φ=5 mm, Metrohm) and, by titration with a freshly prepared 0.01N NaOH solution to pH 7 (Dosimat 665 Metrohm), the secreted HCl were determined in the effluent in each case collected at an interval of 15 minutes.
The gastric secretion was stimulated by continuous infusion of 1 μg/kg (=1.65 ml/h) of i.v. pentagastrin (left femoral vein) about 30 min after the end of the operation (i.e. after determination of 2 preliminary fractions). The substances to be tested were administered intraduodenally in a 2.5 ml/kg liquid volume 60 min after the start of the continuous pentagastrin infusion.
The body temperature of the animals was kept at a constant 37.8–38° C. by infrared irradiation and heat pads (automatic, stepless control by means of a rectal temperature sensor).

Structure (SMILES) | Inhibition of acid secretion [%]
CCN(CC)C(=O)c1cn2c(C)c(C)nc2c2c1CCC(c1ccccc1)O2 (stereo not drawn) [Example 1, 2,3-Dimethyl-9-phenyl-7H-8,9-dihydro-pyrano-[2,3-c]-N-(diethyl)imidazo[1,2-a]pyridine-6-carboxamide] | 100
CCOC(=O)c1cn2c(C)c(C)nc2c2c1CCC(c1ccccc1)O2 (stereo not drawn) [Example 2, Ethyl 2,3-dimethyl-9-phenyl-7H-8,9-dihydro-pyrano[2,3-c]-imidazo[1,2-a]pyridine-6-carboxylate] | 100
Cc1nc2c3c(c(C(=O)N(C)C)cn2c1C)CCC(c1ccccc1)O3 (stereo not drawn) [Example 3, 2,3-Dimethyl-9-phenyl-7H-8,9-dihydro-pyrano[2,3-c]-imidazo[1,2-a]pyridine-6-(N,N-dimethyl)carbamide] | 100
